Some results are limits rather than exact numbers.

The subject of this assay is HCV (Ib) RNA replication. Nature of the assay: Cell-based luciferase reporter HCV (1b) RNA replication assay (replicon cell lines Huh-7 5.2 and ET). Details: species or system Hepatitis C virus. As to conditions: Hepatitis C virus, Huh-7, 96 h, HCV 1b genotype replicon, luciferase readout, 4 days incubation; read-out: EC50_1b. In outline: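 Huh-7-derived 5.2 or ET replicon cells carrying a firefly luciferase reporter were seeded at ~3000 cells/well in medium without G418 or phenol red. Compound was added after 3-4 h, followed by 4 days at 37 °C. Luciferase readout was used, with IC50 fitted by nonlinear regression from eleven concentrations in duplicate.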
Take `COC(=O)N[C@H](C(=O)N1CC[C@H]1c1nc2ccc(-c3ccc(-c4ccc5nc([C@@H]6CCN6C(=O)[C@@H](NC(=O)OC)C(C)C)[nH]c5c4)cc3)cc2[nH]1)C(C)C` [Compound 145]: the EC50 is ≤ 5 nM.
`CC(C)[C@H](NC(=O)OC(C)(C)C)C(=O)N1CCC[C@H]1c1nc2ccc(-c3ccc(-c4ccc5nc([C@@H]6CCCN6C(=O)[C@@H](NC(=O)OC(C)(C)C)C(C)C)[nH]c5c4)cc3)cc2[nH]1` [Compound 189]: the EC50 was 5 to 5000 nM.
Next, `CC(C)[C@H](NC(=O)N(C)C)C(=O)N1CCC[C@H]1c1nc2cc(C#Cc3ccc4nc([C@@H]5CCCN5C(=O)[C@@H](NC(=O)N(C)C)C(C)C)[nH]c4c3)ccc2[nH]1` [Compound 91]: ≤ 5 nM; `COC(=O)N[C@H](C(=O)N1CCC[C@H]1c1nc2cc(-c3ccc(-c4ccc5[nH]c([C@@H]6CCCN6C(=O)[C@@H](NC(=O)OC)C(C)C)nc5c4)c(C)c3C)ccc2[nH]1)C(C)C` [Compound 13, ((S)-1-{(S)-2-[5-(4-{2-[(S)-1-((S)-2-Methoxycarbonylamino-3-methyl-butyryl)-pyrrolidin-2-yl]-1H-benzoimidazol-5-yl}-2,3-dimethyl-phenyl)-1H-benzoimidazol-2-yl]-pyrrolidine-1-carbonyl}-2-methyl-propyl)-carbamic acid methyl ester]: ≤ 5 nM; `COC(=O)N[C@H](C(=O)N1CCC[C@H]1c1nc2cc(C#Cc3ccc4[nH]c([C@@H]5CCCN5C(=O)[C@H](NC(=O)OC)c5ccccc5)nc4c3)ccc2[nH]1)C(C)C` [Compound 39, {(S)-1-[(S)-2-(5-{2-[(S)-1-((R)-2-Methoxycarbonylamino-2-phenyl-acetyl)-pyrrolidin-2-yl]-1H-benzoimidazol-5-ylethynyl}-1H-benzoimidazol-2-yl)-pyrrolidine-1-carbonyl]-2-methyl-propyl}-carbamic acid methyl ester]: ≤ 5 nM.
Next, `C[C@H]1C[C@@H](c2nc3ccc(-c4ccc(-c5ccc6nc([C@@H]7C[C@H](C)CN7C(=O)OC(C)(C)C)n(C)c6c5)cc4)cc3[nH]2)N(C(=O)OC(C)(C)C)C1` [Compound 292]: 5 to 5000 nM.
The result for `CC(C)(C)CC(=O)N1CCC[C@H]1c1nc2cc(C#Cc3ccc4[nH]c([C@@H]5CCCN5C(=O)CC(C)(C)C)nc4c3)ccc2[nH]1` [Compound 124] reads 5 to 5000 nM.
`CC(C)(C)OC(=O)N1CCCC[C@H]1c1nc2cc(C#Cc3ccc4nc([C@@H]5CSCN5C(=O)OC(C)(C)C)[nH]c4c3)ccc2[nH]1` [Compound 48]: the EC50 was > 5000 nM.
Regarding `CC(C)(C)OC(=O)N[C@H](CC1CCC1)C(=O)N1CCC[C@H]1c1nc2cc(C#Cc3ccc4[nH]c([C@@H]5CCCN5C(=O)[C@@H](CC5CCC5)NC(=O)OC(C)(C)C)nc4c3)ccc2[nH]1` [Compound 113], the EC50 is ≤ 5 nM.
Turning to `COC(=O)N[C@H](C(=O)N1CCC[C@H]1c1nc2cc(-c3ccc(-c4ccc5[nH]c([C@@H]6C[C@H](C)CN6C(=O)[C@@H](NC(=O)OC)C(C)C)nc5c4)cc3)ccc2[nH]1)C(C)C` [Compound 272], the EC50 is ≤ 5 nM.
The result for `COC(=O)N[C@H](C(=O)N1C[C@@H](C)C[C@H]1c1nc2cc(-c3ccc(-c4ccc5nc([C@@H]6C[C@H](C)CN6C(=O)[C@@H](NC(=O)OC)C(C)C)[nH]c5c4)cc3C(=O)O)ccc2[nH]1)C(C)C` [Compound 270] reads 5 to 5000 nM; that for `COC(=O)N[C@H](C(=O)N1CCC[C@H]1c1nc2cc(C#Cc3ccc(-c4ccc5[nH]c([C@@H]6CCCN6C(=O)[C@@H](NC(=O)OC)C(C)C)nc5c4)cc3)ccc2[nH]1)C(C)C` [Compound 147], ≤ 5 nM; that for `CC(=O)N[C@@H](C(=O)N1CCC[C@@H]1c1nc2cc(C#Cc3ccc4[nH]c([C@H]5CCCN5C(=O)[C@H](NC(C)=O)C(C)C)nc4c3)ccc2[nH]1)C(C)C` [Compound 98], 5 to 5000 nM.
As to `COC(=O)N[C@H](C(=O)N1[C@@H](C)CC[C@H]1c1nc2ccc(-c3ccc(-c4ccc5nc([C@@H]6CC[C@H](C)N6C(=O)[C@@H](NC(=O)OC)C(C)C)[nH]c5c4)c4nsnc34)cc2[nH]1)C(C)C` [Compound 317], the EC50 was ≤ 5 nM.
Turning to `O=C1CC[C@H](C(=O)N2CCC[C@H]2c2nc3cc(C#Cc4ccc5[nH]c([C@@H]6CCCN6C(=O)[C@H]6CCC(=O)N6)nc5c4)ccc3[nH]2)N1` [Compound 86], the EC50 was > 5000 nM.
For the compound `COC(=O)N[C@H](C(=O)N1CCC[C@H]1c1nc2cc(-c3ccc(-c4ccc5[nH]c([C@@H]6CCCN6C(=O)[C@@H](NC(=O)OC)C(C)C)nc5c4)s3)ccc2[nH]1)C(C)C` [Compound 17], the EC50 was ≤ 5 nM.
Next, `COC(=O)N[C@H](C(=O)N1CCC[C@H]1c1nc2cc(C#Cc3ccc4[nH]c([C@@H]5CCCN5C(=O)[C@@H](NC(=O)OC)C(C)C)nc4c3)ccc2[nH]1)C(C)C` [Compound 37, {(S)-1-[(S)-2-(5-{2-[(S)-1-((S)-2-Methoxycarbonylamino-3-methyl-butyryl)-pyrrolidin-2-yl]-1H-benzoimidazol-5-ylethynyl}-1H-benzoimidazol-2-yl)-pyrrolidine-1-carbonyl]-2-methyl-propyl}-carbamic acid methyl ester]: ≤ 5 nM; `COC(=O)N[C@H](C(=O)N1C[C@@H](C)C[C@H]1c1nc2cc(-c3ccc(-c4ccc5[nH]c([C@@H]6C[C@H](C)CN6C(=O)[C@@H](NC(=O)OC)C(C)C)nc5c4)cc3)ccc2[nH]1)C(C)C` [Compound 186]: ≤ 5 nM.
For the compound `COC(=O)N[C@H](C(=O)N1CCC[C@H]1c1nc2c(F)cc(-c3ccc(-c4cc(F)c5nc([C@@H]6CCCN6C(=O)[C@@H](NC(=O)OC)C(C)C)[nH]c5c4)c(C)c3)cc2[nH]1)C(C)C` [Compound 254], the EC50 was ≤ 5 nM.
With `COC(=O)N[C@H](C(=O)N1CCC[C@H]1c1nc2cc(-c3ccc(-c4ccc5[nH]c([C@@H]6CCCN6C(=O)[C@@H](NC(=O)OC)[C@@H](C)OC)nc5c4)cc3)ccc2[nH]1)C(C)C` [Compound 208], the EC50 was ≤ 5 nM.
Next, `Cc1cc(-c2ccc3[nH]c([C@@H]4CCCN4C(=O)[C@@H](NC(=O)O[C@H]4CCOC4)C(C)C)nc3c2)sc1-c1ccc2[nH]c([C@@H]3CCCN3C(=O)[C@@H](NC(=O)O[C@H]3CCOC3)C(C)C)nc2c1` [Compound 156]: 5 to 5000 nM; `COCCCC(=O)N1CCC[C@H]1c1nc2cc(C#Cc3ccc4[nH]c([C@@H]5CCCN5C(=O)CCCOC)nc4c3)ccc2[nH]1` [Compound 105]: 5 to 5000 nM.
Next, `O=C(OCc1ccccc1)N1CCCC[C@H]1c1nc2cc(C#Cc3ccc4nc([C@@H]5CCCCN5C(=O)OCc5ccccc5)[nH]c4c3)ccc2[nH]1` [Compound 30, (S)-2-{5-[2-((S)-1-Benzyloxycarbonyl-piperidin-2-yl)-1H-benzoimidazol-5-ylethynyl]-1H-benzoimidazol-2-yl}-piperidine-1-carboxylic acid benzyl ester]: 5 to 5000 nM.
Regarding `COC(=O)N[C@H](C(=O)N1C[C@@H](C)C[C@H]1c1nc2cc(-c3ccc(-c4ccc5[nH]c([C@@H]6C[C@H](C)CN6C(=O)[C@@H](NC(=O)OC)C(C)C)nc5c4)c(F)c3)ccc2[nH]1)C(C)C` [Compound 242], the EC50 was ≤ 5 nM.
The result for `O=C(OCc1ccccc1)N1CCCC[C@H]1c1nc2cc(C#C/C=C/c3ccc4[nH]c([C@@H]5CCCCN5C(=O)OCc5ccccc5)nc4c3)ccc2[nH]1` [Compound 40, (S)-2-(5-{(E)-4-[2-((S)-1-Benzyloxycarbonyl-piperidin-2-yl)-1H-benzoimidazol-5-yl]-but-1-en-3-ynyl}-1H-benzoimidazol-2-yl)-piperidine-1-carboxylic acid benzyl ester] reads 5 to 5000 nM; that for `CCN(C(=O)OC)[C@H](C(=O)N1C[C@@H](C)C[C@H]1c1nc2ccc(-c3ccc(-c4ccc5[nH]c([C@@H]6C[C@H](C)CN6C(=O)[C@@H](NC(=O)OC)C(C)C)nc5c4)cc3)cc2[nH]1)C(C)C` [Compound 297], ≤ 5 nM; that for `CC[C@@H](C(=O)N1CCC[C@H]1c1nc2cc(-c3ccc(-c4ccc5nc([C@@H]6CCCN6C(=O)[C@H](CC)N(C)C(=O)OC)[nH]c5c4)c4c3OCO4)ccc2[nH]1)N(C)C(=O)OC` [Compound 215], ≤ 5 nM.
The result for `COC(=O)N[C@H](C(=O)N1CCCC[C@H]1c1nc2cc(C#Cc3ccc4[nH]c([C@@H]5CCCCN5C(=O)[C@@H](NC(=O)OC)C(C)C)nc4c3)ccc2[nH]1)C(C)C` [Compound 58] reads ≤ 5 nM; that for `C[C@H]1C[C@@H](c2nc3ccc(-c4ccc(-c5ccc6nc([C@@H]7C[C@H](C)CN7C(=O)OC(C)(C)C)n(C)c6c5)cc4)cc3n2C)N(C(=O)OC(C)(C)C)C1` [Compound 291], 5 to 5000 nM.
The result for `O=C(CC1CCCC1)N1CCC[C@H]1c1nc2cc(C#Cc3ccc4[nH]c([C@@H]5CCCN5C(=O)CC5CCCC5)nc4c3)ccc2[nH]1` [Compound 125] reads 5 to 5000 nM; that for `COC(=O)N[C@H](C(=O)N1[C@H](C)CC[C@H]1c1nc2cc(-c3ccc(-c4ccc5[nH]c([C@@H]6CC[C@H](C)N6C(=O)[C@@H](NC(=O)OC)C(C)C)nc5c4)cc3)ccc2[nH]1)C(C)C` [Compound 313], ≤ 5 nM; that for `COC(=O)N[C@H](C(=O)N1CC(F)(F)C[C@H]1c1nc2cc(-c3ccc(-c4ccc5nc([C@@H]6CC(F)(F)CN6C(=O)[C@@H](NC(=O)OC)C(C)C)[nH]c5c4)cc3)ccc2[nH]1)C(C)C` [Compound 3, ((S)-1-{(S)-2-[5-(4-{2-[(S)-4,4-Difluoro-1-((S)-2-methoxycarbonylamino-3-methyl-butyryl)-pyrrolidin-2-yl]-1H-benzoimidazol-5-yl}-phenyl)-1H-benzoimidazol-2-yl]-4,4-difluoro-pyrrolidine-1-carbonyl}-2-methyl-propyl)-carbamic acid methyl ester], ≤ 5 nM.
For the compound `CC(C)[C@@H](C(=O)N1CCC[C@H]1c1nc2cc(C#Cc3ccc4[nH]c([C@@H]5CCCN5C(=O)[C@H](C(C)C)N5CCCC5=O)nc4c3)ccc2[nH]1)N1CCCC1=O` [Compound 81], the EC50 was ≤ 5 nM.
